Measured values published in the NIST ThermoML archive (doi:10.1021/je400274f).
“And” between values parts separate entries of the source, which are not always exact repeats. Equal entries are not always repeated. Numbers after ± are expanded uncertainties.

Conditions: 101.33 kPa, Liquid; for viscosity: Concentric cylinders viscometry; for speed of sound: Pulse-echo method; for mass density: Vibrating tube method

CCCCCCCCC(C)C [2-methyldecane]
viscosity (283.15 K): 1.37 ± 0.02 mPa·s | speed of sound (283.15 K): 1295.5 ± 1.3 m/s | mass density (283.15 K): 745.7 ± 0.3 kg/m3 and 745.8 ± 0.3 kg/m3 | viscosity (293.15 K): 1.15 ± 0.04 mPa·s | speed of sound (293.15 K): 1256.2 ± 1.3 m/s | mass density (293.15 K): 738.4 ± 0.3 kg/m3 and 738.3 ± 0.3 kg/m3 | viscosity (303.15 K): 0.977 ± 0.021 mPa·s | speed of sound (303.15 K): 1217.1 ± 1.3 m/s | mass density (303.15 K): 730.9 ± 0.3 kg/m3 | viscosity (313.15 K): 0.83 ± 0.017 mPa·s | speed of sound (313.15 K): 1178.8 ± 1.3 m/s | mass density (313.15 K): 723.5 ± 0.3 kg/m3 and 723.2 ± 0.3 kg/m3 | viscosity (323.15 K): 0.736 ± 0.015 mPa·s | speed of sound (323.15 K): 1141 ± 1.3 m/s | mass density (323.15 K): 715.9 ± 0.3 kg/m3 and 715.7 ± 0.3 kg/m3 | viscosity (333.15 K): 0.647 ± 0.017 mPa·s | mass density (333.15 K): 708.1 ± 0.3 kg/m3 | viscosity (343.15 K): 0.575 ± 0.017 mPa·s | mass density (343.15 K): 700.5 ± 0.3 kg/m3 | viscosity (353.15 K): 0.514 ± 0.015 mPa·s | mass density (353.15 K): 692.8 ± 0.4 kg/m3 | viscosity (363.15 K): 0.464 ± 0.013 mPa·s | mass density (363.15 K): 684.9 ± 0.4 kg/m3 | viscosity (373.15 K): 0.422 ± 0.011 mPa·s | mass density (373.15 K): 677 ± 0.4 kg/m3

CCCCCCCCCCCCCC(C)C [2-methylpentadecane]
viscosity (283.15 K): 4.6 ± 0.29 mPa·s | speed of sound (283.15 K): 1378.7 ± 6.1 m/s | mass density (283.15 K): 782.2 ± 4.9 kg/m3 and 781.8 ± 4.9 kg/m3 | viscosity (293.15 K): 3.52 ± 0.24 mPa·s | speed of sound (293.15 K): 1341 ± 6.1 m/s | mass density (293.15 K): 774.9 ± 4.9 kg/m3 and 775 ± 4.9 kg/m3 | viscosity (303.15 K): 2.77 ± 0.16 mPa·s | speed of sound (303.15 K): 1303.8 ± 6.1 m/s | mass density (303.15 K): 767.9 ± 4.8 kg/m3 and 768 ± 4.8 kg/m3 | viscosity (313.15 K): 2.24 ± 0.16 mPa·s | speed of sound (313.15 K): 1267.3 ± 6.1 m/s | mass density (313.15 K): 761 ± 4.7 kg/m3 | viscosity (323.15 K): 1.85 ± 0.11 mPa·s | speed of sound (323.15 K): 1231.6 ± 6.1 m/s | mass density (323.15 K): 754.1 ± 4.6 kg/m3 and 754 ± 4.6 kg/m3 | viscosity (333.15 K): 1.55 ± 0.08 mPa·s | mass density (333.15 K): 747 ± 4.5 kg/m3 | viscosity (343.15 K): 1.33 ± 0.06 mPa·s | mass density (343.15 K): 740 ± 4.5 kg/m3 | viscosity (353.15 K): 1.14 ± 0.07 mPa·s | mass density (353.15 K): 733 ± 4.4 kg/m3 | viscosity (363.15 K): 1 ± 0.05 mPa·s | mass density (363.15 K): 726 ± 4.3 kg/m3 | viscosity (373.15 K): 0.88 ± 0.03 mPa·s | mass density (373.15 K): 718.9 ± 4.2 kg/m3

CCCCCCC(C)C [2-methyloctane]
viscosity (283.15 K): 0.776 ± 0.017 mPa·s | speed of sound (283.15 K): 1242.2 ± 1.5 m/s | mass density (283.15 K): 723.2 ± 0.5 kg/m3 and 723.2 ± 0.3 kg/m3 | viscosity (293.15 K): 0.676 ± 0.015 mPa·s | speed of sound (293.15 K): 1201.3 ± 1.5 m/s | mass density (293.15 K): 715.4 ± 0.3 kg/m3 and 715.3 ± 0.4 kg/m3 | viscosity (303.15 K): 0.594 ± 0.013 mPa·s | speed of sound (303.15 K): 1160.7 ± 1.5 m/s | mass density (303.15 K): 707.6 ± 0.3 kg/m3 and 707.4 ± 0.4 kg/m3 | viscosity (313.15 K): 0.499 ± 0.011 mPa·s | speed of sound (313.15 K): 1120.7 ± 1.5 m/s | mass density (313.15 K): 699.6 ± 0.3 kg/m3 and 699.4 ± 0.4 kg/m3 | viscosity (323.15 K): 0.47 ± 0.011 mPa·s | speed of sound (323.15 K): 1081.2 ± 1.5 m/s | mass density (323.15 K): 691.6 ± 0.4 kg/m3 and 691.4 ± 0.4 kg/m3 | viscosity (333.15 K): 0.422 ± 0.01 mPa·s | mass density (333.15 K): 683.3 ± 0.4 kg/m3 | viscosity (343.15 K): 0.381 ± 0.009 mPa·s | mass density (343.15 K): 675.1 ± 0.4 kg/m3 | viscosity (353.15 K): 0.345 ± 0.008 mPa·s | mass density (353.15 K): 666.7 ± 0.4 kg/m3 | viscosity (363.15 K): 0.315 ± 0.008 mPa·s | mass density (363.15 K): 658.2 ± 0.4 kg/m3 | viscosity (373.15 K): 0.288 ± 0.008 mPa·s | mass density (373.15 K): 649.7 ± 0.5 kg/m3

CCCCCCCC(C)C [2-methylnonane]
viscosity (283.15 K): 1.037 ± 0.022 mPa·s | speed of sound (283.15 K): 1271.4 ± 1.5 m/s | mass density (283.15 K): 734.7 ± 0.4 kg/m3 and 734.5 ± 0.3 kg/m3 | viscosity (293.15 K): 0.887 ± 0.02 mPa·s | speed of sound (293.15 K): 1231.1 ± 1.5 m/s | mass density (293.15 K): 726.9 ± 0.3 kg/m3 and 727.1 ± 0.4 kg/m3 | viscosity (303.15 K): 0.768 ± 0.017 mPa·s | speed of sound (303.15 K): 1191.3 ± 1.5 m/s | mass density (303.15 K): 719.3 ± 0.3 kg/m3 and 719.4 ± 0.4 kg/m3 | viscosity (313.15 K): 0.653 ± 0.015 mPa·s | speed of sound (313.15 K): 1152 ± 1.5 m/s | mass density (313.15 K): 711.6 ± 0.3 kg/m3 and 711.7 ± 0.4 kg/m3 | viscosity (323.15 K): 0.595 ± 0.013 mPa·s | speed of sound (323.15 K): 1113.4 ± 1.5 m/s | mass density (323.15 K): 703.9 ± 0.3 kg/m3 and 703.9 ± 0.4 kg/m3 | viscosity (333.15 K): 0.529 ± 0.012 mPa·s | mass density (333.15 K): 696 ± 0.4 kg/m3 | viscosity (343.15 K): 0.475 ± 0.011 mPa·s | mass density (343.15 K): 688.1 ± 0.4 kg/m3 | viscosity (353.15 K): 0.428 ± 0.01 mPa·s | mass density (353.15 K): 680.2 ± 0.4 kg/m3 | viscosity (363.15 K): 0.388 ± 0.009 mPa·s | mass density (363.15 K): 672.1 ± 0.4 kg/m3 | viscosity (373.15 K): 0.355 ± 0.009 mPa·s | mass density (373.15 K): 664 ± 0.4 kg/m3
